Assay results taken from US20210369677A1, “SMALL MOLECULE ACTIVATORS OF POLYCYSTIN-2 (PKD2) AND USES THEREOF” (Northwestern University, priority 2020, published 2021).

Biological target: T1, human PKD2 channel proteins (WT or C331S) (Homo sapiens, UniProt Q13563)
T1 construct: purified the C331S variant of polycystin-2 (residues 53-792) protein in amphipols; made in house
Assay: Thermal stability assay (FSEC) of purified PKD2 channel proteins
Conditions: 10 mM GSH
Procedure: Thermal stability assay. Approximately 9 μg of purified human PKD2 channel proteins (WT or C331S) in 30 μl buffer composed of 20 mM HEPES 150 mM NaCl, 2 mM CaCl2), 0.5 mM TCEP and 0.5 mM DDM (n-Dodecyl β-D-maltoside), at pH 7.4, were incubated at 4° C.-90° C. (4° C., room temperature, 30° C., 35.2° C., 39.3° C., 44.9° C., 49° C., 54° C., 60° C., 65.5° C., 69.4° C., 75° C., 79.3° C., 84° C., and 90° C.) for 10 minutes in a thermal cycler. To reduce the C331-C344 disulfide bond in the PKD2 channel, 10 mM GSH was added to all the buffers during purification and thermal stability assay. The treated channel samples were then diluted 10 times with the same buffer followed by centrifugation for 30 min at 40,000 rpm. 30 μl of each cleared channel samples were separated on an analytical size exclusion column (Superose™ 6 5/150 GL, GE Healthcare) at 0.3 ml/min flow rate. Proteins were detected by Tryptophan fluorescence. The FSEC-based thermostability experiments were performed in triplicates for each temperature point. The integrated area of the channel tetramer peak at different temperature points is normalized to that at 4° C. to generate the thermal stability plot.
We tested the thermal stability of PKD2 and the C331S variant in the presence or absence of NS1643. (See FIG. 33). We also performed Rosetta modeling. (See FIG. 35).

T1 sequence (Q13563 53-792 C331S): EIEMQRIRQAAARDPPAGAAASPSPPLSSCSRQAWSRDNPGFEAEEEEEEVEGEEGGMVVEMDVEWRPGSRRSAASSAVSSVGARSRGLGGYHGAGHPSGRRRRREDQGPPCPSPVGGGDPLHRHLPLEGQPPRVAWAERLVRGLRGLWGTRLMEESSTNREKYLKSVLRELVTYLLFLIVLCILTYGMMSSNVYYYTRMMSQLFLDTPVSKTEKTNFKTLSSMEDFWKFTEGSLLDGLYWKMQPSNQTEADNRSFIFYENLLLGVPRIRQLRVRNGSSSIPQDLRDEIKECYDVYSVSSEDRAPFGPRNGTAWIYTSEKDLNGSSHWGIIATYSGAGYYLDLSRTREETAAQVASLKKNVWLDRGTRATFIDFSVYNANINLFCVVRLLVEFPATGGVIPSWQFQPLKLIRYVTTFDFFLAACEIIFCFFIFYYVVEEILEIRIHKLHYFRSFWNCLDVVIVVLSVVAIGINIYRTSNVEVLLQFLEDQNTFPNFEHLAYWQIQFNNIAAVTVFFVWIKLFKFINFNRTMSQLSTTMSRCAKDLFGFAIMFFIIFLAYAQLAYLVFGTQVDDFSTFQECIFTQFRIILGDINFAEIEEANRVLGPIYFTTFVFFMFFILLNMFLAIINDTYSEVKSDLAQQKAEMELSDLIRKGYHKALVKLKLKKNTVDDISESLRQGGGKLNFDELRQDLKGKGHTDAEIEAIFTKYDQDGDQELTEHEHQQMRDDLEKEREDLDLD

- Thermal denaturation of polycystin-2 channel protein under reducing conditions: denaturing at lower temperatures
Compound: N[C@@H](CCC(=O)N[C@@H](CS)C(=O)NCC(=O)O)C(=O)O [GSH, reduced glutathione]
